In patent US20250281610A1, “P2RY2 ACTIVITY MODULATORS” (Deutsches Krebsforschungszentrum Stiftung des öffentlichen …, priority 2022, published 2025):

Tested on: THP-1 cells
Experiment: Viability of THP-1 cells in co-culture with CD33-specific CAR-T cells (flow cytometry-based cell counting)
Parameters: species or system human
Conditions: 5 μM AR-C
Method: FIG. 8. Effects of P2RY2 antagonist on T cells and cancer cells in T cell-cancer cell co-cultures. T cells transduced with CD33-specific CAR (CAR-T) were co-cultured with genetically edited THP-1 cells in the absence or presence of 5 μM AR-C 118925XX (AR-C) for 6-24 hours. Control cells: THP-1 cells transduced with non-targeting sgRNA and Cas9 (gNT); P2RY2 deficient cells: THP-1 cells transduced with P2RY2-targeting sgRNA and Cas9 (gP2RY2-3, gP2RY2-4); B7-H3 (CD276) deficient cells: THP-1 cells transduced with B7-H3-targeting sgRNA and Cas9 (gCD276-1); P2RY2 and B7-H3 double deficient cells: THP-1 cells transduced with P2RY2-targeting sgRNA, B7-H3-targeting sgRNA, and Cas9 (gCD276-1 gP2RY2-3 DKO, gCD276-1 gP2RY2-4 DKO); P2RY2 overexpression cells: THP-1 cells transduced with the open reading frame of P2RY2 (P2RY2-OE); B7-H3 overexpression cells: THP-1 cells transduced with the open reading frame of CD276 (CD276-OE). […]
FIG. 9. […] Control cells THP-1 cells transduced with non-targeting sgRNA and Cas9 (Ctrl.); P2RY2 overexpression cells: THP-1 cells transduced with the open reading frame of P2RY2 (P2RY2-OE). […]
The open reading frames of transcripts of P2RY2(ENST00000393597.7) or CD276(ENST00000318443.10), were ordered as a codon optimized gBlock Gene Fragment (Integrated DNA Technologies or Twist Bioscience) and cloned into a lentiviral vector containing a blasticidin selection cassette. […]
MART1-specific CD8+ T cells and MART1 epitope-expressing cancer cells were mixed at a ratio of 1:16 to 1:4. […] T cell activation was assessed by surface staining with anti-CD137-BV421 (4-1BB, Biolegend), anti-CD69-APC/Fire™ 750 (FN50, Biolegend), anti-CD25-AF700 (BC96, Biolegend) antibodies and intracellular staining with anti-IL-2-PE/Cy7 (MQ1-17H12, Biolegend), anti-IFN-7-BV421 (4S.B3, Biolegend), anti-TNF-α-BV785 (MAb11, Biolegend) antibodies, followed by flow cytometry analysis. […] The viability of cancer cells that grow in suspension including THP-1 cells was assessed by flow cytometry-based absolute cell counting using AccuCount beads (Spherotech). […]

Cc1ccc2c(c1)C=Cc1cc(C)ccc1C2c1cn(Cc2ccc(C(=O)Nc3nn[nH]n3)o2)c(=O)[nH]c1=S [AR-C 118925XX]
viability of P2RY2 proficient THP-1 cells (6-24 hours, co-culture with CD33-specific CAR-T cells (FIG. 8)): reduced | viability of tumor cells upon P2RY2 deletion (P2RY2 deficient THP-1 cells, CAR-T cell-THP-1 cell coculture (FIG. 8)): does not influence
